US8163693B2, “Urea-containing peptides as inhibitors of viral replication” (Achillion Pharmaceuticals, Inc., priority 2007, dated 2012)
Where two headings read alike, the source gives them in different places.

Tested on: Hepatitis C replicon in Huh-7 cells
Assay: HCV replicon assay (inhibition of HCV replicon replication, NPT ELISA readout)
Type: cell-based
Conditions: Hepatitis C virus, 72 h, Huh-7 HCV replicon-containing cells, three days incubation
Description: Compounds claimed herein are tested for the ability to inhibit viral replication of the Hepatitis C replicon in cultured cells in which the HCV replicon construct has been incorporated. The HCV replicon system was described by Bartenschlager, et. al (Science, 285, pp. 110-113 (1999)). The replicon system is predictive of in vivo anti-HCV activity; compounds that are active in humans uniformly evidence activity in the replicon assay.
In this assay HCV replicon containing cells are treated with different concentrations of the test compound to ascertain the ability of the test compound to suppress replication of the HCV replicon. As a positive control, HCV replicon-containing cells are treated with different concentrations of interferon alpha, a known inhibitor of HCV replication. The replicon assay system includes Neomycin Phosphotransferase (NPT) as a component of the replicon itself in order to detect the transcription of replicon gene products in the host cell. Cells in which the HCV replicon is actively replicating have high levels of NPT; the level of NPT is proportional to HCV replication. […] The NPT level of each sample is measured using a captured ELISA.
A protocol for testing compounds for the ability to inhibit viral replication of the Hepatitis C replicon cultured cells in which the replicon construct has been incorporated, follows.
The HCV replicon contains, 5′-3′, the HCV-IRES, the neomycin phosphotransferase (neo) gene, the IRES of encephalomyocarditis virus, which directs translation of HCV sequences NS3 to NS5B, and the 3′-NTR. The sequence of the HCV replicon has been deposited in GenBank (Accession no. AJ242652).
The replicon is transfected into Huh-7 cells using standard methods such as electroporation.
The equipment and materials include, but are not limited to, Huh-7 HCV replicon-containing cells, maintenance media (DMEM (Dulbecco's modified Eagle media) supplemented with 10% FBS, L-glutamine, non-essential amino acids, penicillin (100 units/ml), streptomycin (100 micrograms/ml), and 500 micrograms/ml of Geneticin (G418), screening media (DMEM supplemented with 10% FBS, L-glutamine, non-essential amino acids, penicillin (100 units/ml) and streptomycin (100 micrograms/ml)), 96 well tissue culture plates (flat bottom), 96 well plates (U bottom for drug dilution), Interferon alpha for positive control, fixation reagent (such as methanol: acetone), primary antibody (rabbit anti-NPTII), secondary antibody: Eu-N1 1, and enhancement solution.
The cells are then seeded onto 96-well plates at a density of 6000-7500 cells/100 microliters/ well (6-7.5×10^5 cells/10 ml/plate). The plates are then incubated at 37° C. in a 5% CO2 incubator.
HCV replicon-containing cells are rinsed with once PBS once; 2 mls of trypsin are then added. Cells are incubated at 37° C. in a 5% CO2 incubator for 3-5 minutes. 10 mls of complete medium is added to stop the reaction. Cells are blown gently, put into a 15 ml tube, and spun at 1200 rpm for four minutes. The trypsin/medium solution is removed and 5 mls of medium (500 ml DMEM (high glucose)) from BRL catalog #12430-054; 50 mls 10% FBS, 5% Geneticin G418 (50 mg/ml, BRL catalog #10131-035), 5 ml MEM non-essential amino acids (100× BRL #11140-050) and 5 ml pen-strep (BRL #15140-148) is added. The cells and media are mixed carefully
Cells are plated with screening medium (500 ml DMEM (BRL #21063-029), 50 ml FBS (BRL #10082-147) and 5 ml MEM non-essential amino acid (BRL #11140-050) at 6000-7500 fcells/100 μl/well of 96 well plate (6-7.5×10^5 cells/10 ml/plate). Plates are placed into 37° C. 5% CO2 incubator overnight.
The following morning, drugs (test compounds or interferon alpha) are diluted in 96 well U bottom plates with media or DMSO/media, depending on the final concentration chosen for screening. Generally for 6 concentrations of each test compounds ranging from 10 micromolar to 0.03 micromolar are applied. […]

[1] = read-out: EC50 in HCV replicon assay
[2] = read-out: Activity (EC50 class in an HCV replicon assay)

SMILES | EC50 [1] | EC50 [2]
C=CC1CC1(NC(=O)N1C[C@@H](OC(=O)N2CCc3ccccc3C2)C[C@H]1C(=O)N[C@H](C(=O)N[C@H](C(=O)NC)C1CCCCC1)C(C)(C)C)C(=O)O (stereo partly drawn) [Compound 33, 1-((2S,4S)-2-((S)-1-((S)-1-Cyclohexyl-2-(Methylamino)-2-Oxoethylamino)-3,3-Dimethyl-1-Oxobutan-2-Ylcarbamoyl)-4-(1,2,3,4-Tetrahydroisoquinoline-2-Carbonyloxy)Pyrrolidine-1-Carboxamido)-2-Vinylcyclopropanecarboxylic Acid] | < 50 µM | –
C=CC1CC1(NC(=O)N1C[C@@H](OC(=O)N2CCCCC2)C[C@H]1C(=O)N[C@H](C(=O)OC(C)(C)C)C(C)(C)C)C(=O)OCC (some centres unmarked) [Compound 45] | – | < 10 µM
CCCC(NC(=O)N1C[C@@H](OC(=O)N2CCc3ccccc3C2)C[C@H]1C(=O)N[C@H](C(=O)N[C@H](C(=O)NC)C1CCCCC1)C(C)(C)C)C(=O)C(=O)NC1CC1 (stereo partly drawn) [Compound 16, (3S,5S)-5-((S)-1-((S)-1-Cyclohexyl-2-(Methylamino)-2-Oxoethylamino)-3,3-Dimethyl-1-Oxobutan-2-Ylcarbamoyl)-1-(1-(Cyclopropylamino)-1,2-Dioxohexan-3-Ylcarbamoyl)Pyrrolidin-3-Yl 3,4Dihydroisoquinoline-2(1H)-Carboxylate] | < 50 µM | –
CCCC(NC(=O)N1C[C@@H](OC(=O)N2CCCCC2)C[C@H]1C(=O)N[C@H](C(=O)OC(C)(C)C)C(C)(C)C)C(=O)C(=O)NC1CC1 (some centres unmarked) [Compound 44] | – | < 10 µM
CCCC(NC(=O)N1C[C@@H](OC(=O)N2CCc3ccccc3C2)C[C@H]1C(=O)N[C@H](C(=O)OC(C)(C)C)C(C)(C)C)C(=O)C(=O)NC1CC1 (some centres unmarked) [Compound 43] | – | 10 to 100 µM
CNC(=O)[C@@H](NC(=O)[C@@H]1CCCCC/C=C\C2CC2(C(=O)O)NC(=O)N2C[C@@H](OC(=O)N3CCc4ccccc4C3)C[C@@H]2C(=O)N1)C1CCCCC1 (some centres unmarked) [Compound 40] | ≤ 10 µM | –
C=CC1CC1(NC(=O)N1C[C@@H](OC(=O)N2CCCCC2)C[C@H]1C(=O)N[C@H](C(=O)OC(C)(C)C)C(C)(C)C)C(=O)O (some centres unmarked) [Compound 46] | – | 10 to 100 µM
C=CC1CC1(NC(=O)N1C[C@@H](OC(=O)N2CCCCC2)C[C@H]1C(=O)N[C@H](C(=O)OC(C)(C)C)C(C)(C)C)C(=O)NS(=O)(=O)C1CC1 (some centres unmarked) [Compound 47] | – | < 10 µM
CCCC(NC(=O)N1C[C@@H](Oc2cc(-c3ccccc3)nc3cc(OC)ccc23)C[C@H]1C(=O)N[C@H](C(=O)N[C@H](C(=O)OC)C1CCCCC1)C(C)(C)C)C(=O)C(=O)NC1CC1 (some centres unmarked) [Compound 41] | – | < 10 µM
CNC(=O)[C@@H](NC(=O)[C@@H]1CCCCC/C=C\CC(C(=O)C(=O)NC2CC2)NC(=O)N2C[C@@H](OC(=O)N3CCc4ccccc4C3)C[C@@H]2C(=O)N1)C1CCCCC1 (some centres unmarked) [Compound 39] | ≤ 10 µM | –
CCCC(NC(=O)N1C[C@@H](OC(=O)N2CCc3ccccc3C2)C[C@H]1C(=O)N[C@H](C(=O)N[C@H](C(=O)OC)C1CCCCC1)C(C)(C)C)C(=O)C(=O)NC1CC1 (stereo partly drawn) [Compound 11, (3S,5S)-5-((S)-1-((S)-1-Cyclohexyl-2-Methoxy-2-Oxoethylamino)-3,3-Dimethyl-1-Oxobutan-2-Ylcarbamoyl)-1-(1-(Cyclopropylamino)-1,2-Dioxohexan-3-Ylcarbamoyl)Pyrrolidin-3-yl 3,4-Dihydroisoquinoline-2(1H)-Carboxylate] | ≤ 10 µM | –
C=CC1CC1(NC(=O)N1C[C@@H](Oc2cc(-c3ccccc3)nc3cc(OC)ccc23)C[C@H]1C(=O)N[C@H](C(=O)N[C@H](C(=O)NC)C1CCCCC1)C(C)(C)C)C(=O)NS(=O)(=O)C1CC1 (some centres unmarked) [Compound 48] | – | < 10 µM
C=CC1CC1(NC(=O)N1C[C@@H](OC(=O)N2CCc3ccccc3C2)C[C@@H]1C(=O)N[C@H](C(=O)N[C@H](C(=O)NC)C(CC)CC)C(C)(C)C)C(=O)O (stereo partly drawn) [Compound 38, 1-((2R,4S)-2-((S)-1-((S)-3-Ethyl-1-(Methylamino)-1-Oxopentan-2-Ylamino)-3,3-Dimethyl-1-Oxobutan-2-Ylcarbamoyl)-4-(1,2,3,4-Tetrahydroisoquinoline-2-Carbonyloxy)Pyrrolidine-1-Carboxamido)-2-Vinylcyclopropanecarboxylic Acid] | < 50 µM | –
C=CC1CC1(NC(=O)N1C[C@@H](Oc2cc(-c3ccccc3)nc3cc(OC)ccc23)C[C@H]1C(=O)NC(C(=O)N[C@H](C(=O)NC)C1CCCCC1)C(C)(C)C)C(=O)O (some centres unmarked) [Compound 42] | – | > 100 µM
